Data: publication PMC12649408 (Antibiotics, 2025)
Like-named read-outs stand apart in the source and are kept apart here. Bridge positions count the residues as written; N and C are the ends. Ends that are not written are not given here.

Assays:
[1] = test system: Caco-2 cell monolayer; assay: Cytotoxicity assay, resazurin method; format: cell-based, human; conditions: for concentration at which cell viability was 0% (100% cell death) / concentration at which cell viability was 50%: Caco-2 monolayer, RPMI-1640, resazurin-test; for СС50 Caco-2: Table S2, monolayer, 24 h in RPMI-1640, resazurin, twice in duplicate
Method: (§1) Cytotoxic activity of the peptides was investigated against human peripheral blood mononuclear cells (PBMCs) and the Caco-2 epithelial monolayer as an in vitro model of the intestinal barrier using a RPMI-1640 medium and resazurin-test.
(§2) In brief, Caco-2 cells in a monolayer or 2 × 10^6 PBMCs per well were incubated with serial dilutions of the peptides for 24 h in RPMI-1640. Resazurin (Sigma, St. Louis, MO, USA) was then added at a final concentration of 70 µM and the plates were incubated for 20 h. Untreated cells (F0) and cells treated by 0.1% Triton X-100 (Sigma-Aldrich) (Fcontrol) were used as negative and positive controls, respectively. Cell viability was assessed by resorufin fluorescence using a 535/595 nm filter and a PlateReader AF2200 as ((Fsample − F0)/(Fcontrol − F0)) × 100%. […] The experiment was carried out twice in duplicate.

[2] = test system: PBMCs; assay: Cytotoxicity assay, resazurin method; format: cell-based, human; conditions: for СС50 PBMCs: Table S2, 24 h in RPMI-1640, resazurin, twice in duplicate
Method: as §1, §2

[3] = not given; remark: listed apart in the source
[4] = not given; remark: listed apart in the source
[5] = not given; remark: listed apart in the source
[6] = not given; remark: listed apart in the source
[7] = not given; remark: listed apart in the source
[8] = not given; remark: listed apart in the source
[9] = not given; remark: listed apart in the source
[10] = not given; remark: listed apart in the source
[11] = not given; remark: listed apart in the source
[12] = not given; remark: listed apart in the source
[13] = not given; remark: listed apart in the source
[14] = test system: human red blood cells (hRBCs)
Method: All procedures were approved by the Ethics Committee of the Institute of Experimental Medicine (protocol 1/20 of 2/27/2020) and comply with the ethical principles of the Declaration of Helsinki. […] Samples were centrifuged to sediment intact red blood cells. Supernatants containing released hemoglobin were transferred to 96-well microplates, and absorbance was measured at 405 nm. Untreated hRBCs in PBS (A0) and hRBC treated with 0.1% Triton X-100 (Sigma-Aldrich) (Acontrol) were used as negative and positive controls, respectively. The percentage of hemolysis was calculated as [(Asample − A0)/(Acontrol − A0)] × 100%. The experiment was carried out twice in duplicate.

[15] = test system: C. albicans clinical isolate 9.1; conditions: Table 2; resistant clinical isolate 9.1; Sabouraud broth, 30 °C, 24 h, 100% inhibition
Method: (§3) Using the two-fold serial dilution method, antifungal activities of the obtained analogues were tested against different C. albicans strains: susceptible collection strain ATCC 18804; resistant to azoles and anidulafungin collection strain ATCC 10231 and clinical isolates 9.1 and 8.2 [7].
(§4) The antifungal assay was performed by the microdilution method using 96-well microplates and Sabouraud broth as described earlier. […] After that, the plates were incubated at 30 °C for 24 h. A control without antifungals was also tested. Fungal growth was evaluated by measuring absorbance at 630 nm. […] All the experiments were performed twice in triplicate. Microscopic analysis of fungal growth was performed using inverted microscopy (Olympus, Tokyo, Japan). A 0.1% BSA solution was used for the blocking of each microplates well to prevent the adsorption of antifungal agents.

[16] = test system: C. albicans ATCC 18804; conditions: Sabouraud broth
Method: as §3, §4

[17] = test system: C. albicans ATCC 10231; conditions: Table 2; strain resistant to azoles and anidulafungin; Sabouraud broth, 30 °C, 24 h, 100% inhibition
Method: as §3, §4

[18] = test system: C. albicans clinical isolate 8.2; conditions: Table 2; resistant clinical isolate 8.2; Sabouraud broth, 30 °C, 24 h, 100% inhibition
Method: as §3, §4

[19] = target: T1, trypsin (Bos taurus, UniProt P00760); conditions: 24 h, 37 °C, 50 mM ammonium bicarbonate buffer pH 8.0, 2.5 ng trypsin per 1 μg peptide, SDS-PAGE
T1 construct: gene PRSS1
Method: (§5) For that purpose, peptides were incubated for 24 h at 50 mM ammonium bicarbonate buffer, pH 8.0, with or without protease.
(§6) The results of proteolysis were monitored by SDS-PAGE (17% T, 3%C). α-Casein, known for its susceptibility to proteolytic digestion, was used in these experiments for comparison.

[20] = test system: C. albicans ATCC 18804; assay: Checkerboard antifungal assay; format: cell-based; conditions: Sabouraud broth, 24 h, 30 °C, synergism at FICI ≤ 0.5, additive action at 0.5 < FIC ≤ 1
Method: All three selected analogues acted synergistically with caspofungin, and the FICI value for NaD1-2 was lower than that of the tobacco defensin.
Two-fold serial dilutions of each test agent were prepared in 96-well microplates in water or 1% DMSO in the case of caspofungin and mixed with equal volumes of suspensions of C. albicans cells (4 × 10^4 cells/mL) in Sabouraud broth, followed by 24 h incubation at 30 °C. Controls containing DMSO at a final concentration of 0.5% (cells only and single agent dilutions) were included in all caspofungin combination assays. […] To assess the combined effect of antifungal substances, the fractional inhibitory concentration index (FICI) was calculated as FICI = ([A])/([MICA]) + ([B])/([MICB]), where [MICA] and [MICB] are the MICs of the substances A and B, respectively, and [A] and [B] are the concentrations of the substances A and B in iso-effective combinations, respectively.

[21] = test system: α-chymotrypsin; conditions: 24 h, 37 °C, 50 mM ammonium bicarbonate buffer pH 8.0, 10 ng α-chymotrypsin per 1 μg peptide, SDS-PAGE
Method: as §5, §6

[22] = Table 2, 30 °C, 24 h, 100% inhibition of fungal growth, absorbance 630 nm, two-fold dilutions, twice in triplicate
[23] = Table 3, No Salts, 50% inhibition of fungal growth
[24] = Table 3, No Salts, 100% inhibition of fungal growth

T1 sequence (P00760 24-246): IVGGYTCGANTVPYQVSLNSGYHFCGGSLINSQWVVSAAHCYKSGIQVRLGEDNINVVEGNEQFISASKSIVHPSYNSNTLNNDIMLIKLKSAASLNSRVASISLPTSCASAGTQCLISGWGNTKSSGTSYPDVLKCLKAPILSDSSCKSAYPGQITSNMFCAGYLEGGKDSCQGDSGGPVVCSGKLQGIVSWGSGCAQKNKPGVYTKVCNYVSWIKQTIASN

Molecule | concentration at which cell viability was 0% (100% cell death) [1] [µM] | concentration at which cell viability was 50% [1] [µM] | СС50 Caco-2 [1] [µM] | СС50 PBMCs [2] [µM] | α-Helix, aqueous solution [%] | Random, DPC micelles [3] [%] | β-Sheet, DPC micelles [4] [%] | β-Turn, SDS micelles [5] [%] | β-Turn, DPC micelles [6] [%] | Random, aqueous solution [7] [%] | α-Helix, SDS micelles [8] [%] | Random, SDS micelles [9] [%] | β-Sheet, SDS micelles [10] [%] | α-Helix, DPC micelles [11] [%] | β-Sheet, aqueous solution [12] [%] | β-Turn, aqueous solution [13] [%] | MIC [15] [µM] | IC50 ([16]; 50 mM NaCl, 50% inhibition) [µM] | MIC ([16]; 50 mM NaCl, 100% inhibition) [µM] | IC50 ([16]; 150 mM NaCl, 50% inhibition) [µM] | other results
CC[C@H](C)[C@H](NC(=O)CN)C(=O)NCC(=O)N[C@@H](C)C(=O)N[C@H](C(=O)N[C@@H](CC(C)C)C(=O)N[C@@H](CCCCN)C(=O)N[C@H](C(=O)N[C@@H](CC(C)C)C(=O)N[C@H](C(=O)N[C@H](C(=O)NCC(=O)N[C@@H](CC(C)C)C(=O)N1CCC[C@H]1C(=O)N[C@@H](C)C(=O)N[C@@H](CC(C)C)C(=O)N[C@H](C(=O)N[C@@H](CO)C(=O)N[C@@H](Cc1c[nH]c2ccccc12)C(=O)N[C@H](C(=O)N[C@@H](CCCCN)C(=O)N[C@@H](CCCNC(=N)N)C(=O)N[C@@H](CCCCN)C(=O)N[C@@H](CCCNC(=N)N)C(=O)N[C@@H](CCC(N)=O)C(=O)N[C@@H](CCC(N)=O)C(N)=O)[C@@H](C)CC)[C@@H](C)CC)[C@@H](C)O)[C@@H](C)O)C(C)C)C(C)C [melittin] | ~12.5 | ~2.5 | 2.35 | 6.10 | – | – | – | – | – | – | – | – | – | – | – | – | – | – | – | – | –
H-RECKTESNTFPGICITKPPCRKACISEKFTDGHCSKILRRCLCRRPC-OH (disulfide 3-47, 14-34, 20-41, 24-43) | – | – | – | – | 7.6 | 31.1 | 30.4 | 22.7 | 22.6 | 38.9 | 16.2 | 32.5 | 28.5 | 15.8 | 29.8 | 23.7 | – | – | – | – | –
RECKTESNTFPGICITKPPCRKACISEKFTDGHCRGFRRRCLCTKPC (disulfide 3-47, 14-34, 20-41, 24-43) [NaD1-L5] | – | – | > 150 | – | 13.5 | 35.5 | 24.1 | 23.4 | 22.3 | 39.3 | 17.8 | 35.9 | 23 | 18.2 | 22.9 | 24.3 | 6.25 | 25 to 50 | 50 | > 50 | Hemolysis at 100 µM ([14]; Table S2, 4% v/v hRBCs in PBS, 2 h, 37 °C): no hemolysis; cytotoxic effects on Caco-2 cells ([1]; in words, at a concentration of 150 µM): practically no cytotoxic effects; MIC ([16]; 150 mM NaCl, 100% inhibition): >50 µM; MIC [16, 22]: 6.25 µM; IC50 [16, 23]: 3.13 to 6.25 µM; MIC [16, 24]: 6.25 µM; IC50 ([16]; […] CaCl2, 50% inhibition): 25 to 50 µM; MIC ([16]; […] CaCl2, 100% inhibition): 50 µM; IC50 ([16]; […] MgCl2, 50% inhibition): 12.5 to 25 µM; MIC ([16]; […] MgCl2, 100% inhibition): 50 µM; MIC [17]: 6.25 µM; MIC [18]: 25 µM
RECKTESNTFPGICITKPPCRKACISEKFTDGHCSKILRRCLCTKPC (disulfide 3-47, 14-34, 20-41, 24-43) [NaD1] | 37.5 | 10.5 | 10.5 | > 100 | 7.5 | 34.2 | 35.4 | 22.2 | 21.1 | 35.8 | 15.8 | 31 | 31 | 9.3 | 35.4 | 21.3 | 6.25 | 12.5 to 25 | 50 | > 50 | Hemolysis at 100 µM ([14]; 100 µM): 14%; cell viability ([2]; PBMCs, peptide 100 μM, RPMI-1640, resazurin-test): approximately 72%; stability to trypsin digestion [19]: high stability; MIC [16, 22]: 6.25 µM; IC50 [16, 23]: 1.56 to 3.13 µM; MIC [16, 24]: 6.25 µM; IC50 ([16]; […] CaCl2, 50% inhibition): > 50 µM; MIC ([16]; […] CaCl2, 100% inhibition): >50 µM; IC50 ([16]; […] MgCl2, 50% inhibition): 3.13 to 6.25 µM; MIC ([16]; […] MgCl2, 100% inhibition): 12.5 µM; MIC [17]: 6.25 µM; MIC [18]: 6.25 µM; FICI LL-37 ([20]; combination of the peptide with LL-37): 0.38; FICI Casp ([20]; combination of the peptide with caspofungin): 0.31; stability to chymotrypsin digestion [21]: high stability
